This is an account of results in ChEMBL document CHEMBL1926604, “Design and synthesis of pyridin-2-ylmethylaminopiperidin-1-ylbutyl amide CCR5 antagonists that are potent inhibitors of M-tropic (R5) HIV-1 replication” (Bioorg Med Chem Lett, 2011).

The nature of data set [1]: Clearance in rat at 10 umol/kg, iv. The format is ADME, organism-based. The conditions noted are these: in vivo.
A short description of data set [2]: AUC (0 to infinity) in dog. Also noted: time infinity; concentration or dose not given beside the values. The format is ADME, organism-based, Canis lupus familiaris. The settings on record: plasma.
The target in data set [3] is T1, C-C chemokine receptor type 4 (Homo sapiens) (UniProt P51679).
T1 sequence (whole entry): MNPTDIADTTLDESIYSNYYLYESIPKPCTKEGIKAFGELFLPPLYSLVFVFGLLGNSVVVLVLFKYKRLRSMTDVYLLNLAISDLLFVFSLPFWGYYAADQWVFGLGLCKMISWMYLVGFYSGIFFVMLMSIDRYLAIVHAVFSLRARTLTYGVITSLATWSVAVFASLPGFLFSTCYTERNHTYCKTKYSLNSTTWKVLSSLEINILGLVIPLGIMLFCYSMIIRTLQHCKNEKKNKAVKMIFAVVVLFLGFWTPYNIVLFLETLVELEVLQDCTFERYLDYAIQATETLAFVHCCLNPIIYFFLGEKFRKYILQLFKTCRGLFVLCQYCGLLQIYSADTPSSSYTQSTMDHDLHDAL
Nature of the data set: Inhibition of CCR4 by Ca(2+) flux assay.

Data set [4] can be described thus: Volume of distribution at steady state in dog at 5 umol/kg, iv. Format: ADME, organism-based, Canis lupus familiaris. The settings on record: in vivo, read-out: Vdss.
Data set [5] can be described thus: Oral bioavailability in dog. The format is ADME, organism-based, Canis lupus familiaris. The conditions noted are these: in vivo.
A short description of data set [6]: AUC (0 to infinity) in rat. Format: ADME, organism-based. Also noted: time infinity; concentration or dose not given beside the values. The settings on record: plasma.
The nature of data set [7]: Cmax in dog. The settings on record: in vivo. The format is ADME, organism-based, Canis lupus familiaris.
The next data set deals with Cytochrome P450 2C19 (Homo sapiens, UniProt P33261). Nature of the data set: Inhibition of CYP2C19. The format is ADME.
The nature of data set [8]: (§1) Volume of distribution at steady state in rat at 10 umol/kg, iv. The format is ADME, organism-based. The settings on record: in vivo, 10 umol/kg, read-out: Vdss.
For data set [9], the system named is Human immunodeficiency virus 1. Nature of the data set: Antiviral activity against R5 tropic Human immunodeficiency virus 1 BAL infected in human PBMC cells assessed as reduction in viral replication by p24 detection based ELISA. Format: functional, organism-based.
The nature of data set [10]: Cmax in rat. The conditions noted are these: in vivo. Format: ADME, organism-based.
Data set [11] in a line: (§2) Half life in rat at 10 umol/kg, iv. The format is ADME, organism-based. The settings on record: in vivo, 10 umol/kg.
The target of data set [12] is T2, Muscarinic acetylcholine receptor M2 (Homo sapiens) (UniProt P08172).
T2 sequence (whole entry): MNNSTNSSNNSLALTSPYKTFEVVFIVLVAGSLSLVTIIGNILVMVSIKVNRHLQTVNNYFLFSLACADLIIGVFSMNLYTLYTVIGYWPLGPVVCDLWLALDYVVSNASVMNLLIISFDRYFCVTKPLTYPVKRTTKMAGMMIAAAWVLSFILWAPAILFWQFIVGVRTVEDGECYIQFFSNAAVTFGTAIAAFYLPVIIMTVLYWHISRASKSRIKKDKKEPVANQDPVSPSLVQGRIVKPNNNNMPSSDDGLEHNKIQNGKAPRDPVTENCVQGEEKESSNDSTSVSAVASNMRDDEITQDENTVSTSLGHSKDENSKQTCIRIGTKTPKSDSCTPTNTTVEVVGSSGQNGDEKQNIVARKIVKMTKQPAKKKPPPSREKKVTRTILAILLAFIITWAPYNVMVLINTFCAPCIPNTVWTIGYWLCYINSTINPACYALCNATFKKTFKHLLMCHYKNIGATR
As to the kind of experiment: Inhibition of muscarinic M2 receptor.

In data set [13] the target is T3, C-C chemokine receptor type 1 (Homo sapiens) (UniProt P32246).
T3 sequence (whole entry): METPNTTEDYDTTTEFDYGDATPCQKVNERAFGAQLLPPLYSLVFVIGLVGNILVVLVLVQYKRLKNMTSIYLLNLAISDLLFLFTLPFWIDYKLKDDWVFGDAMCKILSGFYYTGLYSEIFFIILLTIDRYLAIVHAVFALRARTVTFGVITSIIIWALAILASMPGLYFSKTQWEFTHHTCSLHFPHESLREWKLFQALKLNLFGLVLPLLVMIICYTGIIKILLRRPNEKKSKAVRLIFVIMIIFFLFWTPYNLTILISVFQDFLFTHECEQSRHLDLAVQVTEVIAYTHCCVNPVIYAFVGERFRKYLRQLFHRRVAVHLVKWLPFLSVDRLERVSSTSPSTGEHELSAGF
As to the kind of experiment: Inhibition of CCR1 by Ca(2+) flux assay.

Another data set has as its target Cytochrome P450 2D6 (Homo sapiens, UniProt P10635). As to the kind of experiment: Inhibition of CYP2D6. The format is ADME.
The target in data set [14] is C-X-C chemokine receptor type 4 (Homo sapiens) (UniProt P61073). Nature of the data set: Inhibition of CXCR4 by Ca(2+) flux assay.
In data set [15] the target is C-C chemokine receptor type 2 (Homo sapiens) (UniProt P41597). Nature of the data set: Inhibition of CCR2B by Ca(2+) flux assay.
Data set [16] can be described thus: (§3) Plasma protein binding in human plasma at 1 uM after 5 hrs by LC-MS/MS analysis. The conditions noted are these: read-out: PPB (converted). The format is ADME, cell-free.
For data set [17], the target named is T4, C-X-C chemokine receptor type 1 (Homo sapiens) (UniProt P25024).
T4 sequence (whole entry): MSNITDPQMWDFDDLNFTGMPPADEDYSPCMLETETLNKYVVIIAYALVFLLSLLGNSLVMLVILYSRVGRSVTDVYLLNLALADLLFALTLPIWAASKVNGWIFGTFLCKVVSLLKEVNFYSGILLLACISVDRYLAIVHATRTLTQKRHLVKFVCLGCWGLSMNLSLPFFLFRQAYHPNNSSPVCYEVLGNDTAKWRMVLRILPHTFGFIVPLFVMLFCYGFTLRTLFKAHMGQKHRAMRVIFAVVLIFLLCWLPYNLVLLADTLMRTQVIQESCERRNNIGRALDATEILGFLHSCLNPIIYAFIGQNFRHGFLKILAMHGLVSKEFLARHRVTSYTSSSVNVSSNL
As to the kind of experiment: Inhibition of CXCR1 by Ca(2+) flux assay.

Data set [18] is described as follows: Half life in dog at 5 umol/kg, iv. The format is ADME, organism-based, Canis lupus familiaris. The settings on record: in vivo.
Data set [19] is described as follows: Cytotoxic activity against human PBMC assessed as reduction in cell viability. The format is cell-based.
Data set [20] has as its target T5, C-X-C chemokine receptor type 2 (Homo sapiens) (UniProt P25025).
T5 sequence (whole entry): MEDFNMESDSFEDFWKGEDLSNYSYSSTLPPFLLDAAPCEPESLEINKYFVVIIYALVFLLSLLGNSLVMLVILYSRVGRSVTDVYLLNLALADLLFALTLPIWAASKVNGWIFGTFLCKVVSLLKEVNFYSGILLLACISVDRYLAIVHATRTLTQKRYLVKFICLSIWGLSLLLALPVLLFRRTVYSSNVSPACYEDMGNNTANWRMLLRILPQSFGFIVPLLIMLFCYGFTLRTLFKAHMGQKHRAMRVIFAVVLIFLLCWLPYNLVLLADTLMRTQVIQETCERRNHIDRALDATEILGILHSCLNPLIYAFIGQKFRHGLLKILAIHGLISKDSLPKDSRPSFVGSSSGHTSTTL
Nature of the data set: Inhibition of CXCR2 by Ca(2+) flux assay.

For data set [21], the target named is Voltage-gated inwardly rectifying potassium channel KCNH2 (Homo sapiens, UniProt Q12809). Nature of the data set: Inhibition of human ERG.
Data set [22] in a line: Clearance in dog at 5 umol/kg, iv. Format: ADME, organism-based, Canis lupus familiaris. The settings on record: in vivo.
The target in the next data set is Cytochrome P450 2C9 (Homo sapiens, UniProt P11712). As to the kind of experiment: Inhibition of CYP2C9. Format: ADME.
The target in a further data set is T6, Cytochrome P450 1A2 (Homo sapiens, UniProt P05177).
T6 sequence (P05177 whole entry): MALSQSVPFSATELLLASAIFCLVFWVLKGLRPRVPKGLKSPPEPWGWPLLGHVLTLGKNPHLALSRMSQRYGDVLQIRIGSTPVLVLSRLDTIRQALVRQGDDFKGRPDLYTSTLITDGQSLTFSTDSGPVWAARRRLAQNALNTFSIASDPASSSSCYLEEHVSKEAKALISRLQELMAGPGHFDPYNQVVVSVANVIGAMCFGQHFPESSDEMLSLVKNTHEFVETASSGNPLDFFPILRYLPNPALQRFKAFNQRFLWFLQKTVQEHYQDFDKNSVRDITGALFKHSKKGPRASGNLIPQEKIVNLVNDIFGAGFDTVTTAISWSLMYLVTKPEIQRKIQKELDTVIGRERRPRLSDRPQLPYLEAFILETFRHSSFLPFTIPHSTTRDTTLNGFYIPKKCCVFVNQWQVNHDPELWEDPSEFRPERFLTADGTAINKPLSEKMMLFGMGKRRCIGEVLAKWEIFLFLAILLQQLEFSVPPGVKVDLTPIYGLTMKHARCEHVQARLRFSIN
As to the kind of experiment: Inhibition of CYP1A2. Format: ADME.

The nature of data set [23]: Oral bioavailability in rat. The conditions noted are these: in vivo. Format: ADME, organism-based.
The target of another data set is Cytochrome P450 3A4 (Homo sapiens, UniProt P08684). Nature of the data set: Inhibition of CYP3A4. Format: ADME.
The test system of a further data set is Plasma. The description is as §3. The settings on record: 5 h, 1 µM. Format: ADME, cell-free.
Data set [24] relates to Rattus norvegicus. The data set is described as §1. Format: ADME, organism-based. The conditions noted are these: in vivo.
For data set [25], the system named is Rattus norvegicus. The data set is described as §2. Format: ADME, organism-based. The settings on record: in vivo.

The source made the active and inactive calls. No cut-off for these calls is given here.

Sequence of Voltage-gated inwardly rectifying potassium channel KCNH2 (Q12809 whole entry): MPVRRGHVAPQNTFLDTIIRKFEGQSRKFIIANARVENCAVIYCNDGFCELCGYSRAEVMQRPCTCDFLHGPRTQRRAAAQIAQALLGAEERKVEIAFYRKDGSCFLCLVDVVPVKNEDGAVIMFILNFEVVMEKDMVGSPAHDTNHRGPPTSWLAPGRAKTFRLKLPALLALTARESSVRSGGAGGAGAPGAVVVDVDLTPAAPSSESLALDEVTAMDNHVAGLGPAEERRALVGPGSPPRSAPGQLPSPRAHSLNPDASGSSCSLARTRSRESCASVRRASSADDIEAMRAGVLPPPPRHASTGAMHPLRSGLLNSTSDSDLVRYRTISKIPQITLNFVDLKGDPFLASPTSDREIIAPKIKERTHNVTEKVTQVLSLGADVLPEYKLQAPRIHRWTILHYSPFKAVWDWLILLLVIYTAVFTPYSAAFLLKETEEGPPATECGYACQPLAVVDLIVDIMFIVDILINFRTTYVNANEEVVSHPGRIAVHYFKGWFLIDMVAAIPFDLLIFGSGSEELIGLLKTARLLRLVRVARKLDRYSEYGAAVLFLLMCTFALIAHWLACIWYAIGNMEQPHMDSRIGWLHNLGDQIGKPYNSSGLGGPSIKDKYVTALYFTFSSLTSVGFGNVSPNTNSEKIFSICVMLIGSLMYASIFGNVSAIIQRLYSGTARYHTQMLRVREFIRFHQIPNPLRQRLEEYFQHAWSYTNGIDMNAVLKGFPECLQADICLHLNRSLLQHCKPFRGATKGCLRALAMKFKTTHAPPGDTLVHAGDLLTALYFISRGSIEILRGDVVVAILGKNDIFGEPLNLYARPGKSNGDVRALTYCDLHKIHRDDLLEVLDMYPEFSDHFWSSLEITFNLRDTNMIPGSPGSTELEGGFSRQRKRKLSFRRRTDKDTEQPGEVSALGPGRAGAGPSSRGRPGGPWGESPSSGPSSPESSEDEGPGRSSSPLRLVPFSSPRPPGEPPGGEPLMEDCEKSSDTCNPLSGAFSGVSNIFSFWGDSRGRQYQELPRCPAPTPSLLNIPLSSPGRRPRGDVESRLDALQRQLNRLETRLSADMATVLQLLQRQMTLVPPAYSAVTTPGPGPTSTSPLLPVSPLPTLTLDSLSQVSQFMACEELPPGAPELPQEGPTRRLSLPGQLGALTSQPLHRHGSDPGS
Sequence of Cytochrome P450 3A4 (P08684 whole entry): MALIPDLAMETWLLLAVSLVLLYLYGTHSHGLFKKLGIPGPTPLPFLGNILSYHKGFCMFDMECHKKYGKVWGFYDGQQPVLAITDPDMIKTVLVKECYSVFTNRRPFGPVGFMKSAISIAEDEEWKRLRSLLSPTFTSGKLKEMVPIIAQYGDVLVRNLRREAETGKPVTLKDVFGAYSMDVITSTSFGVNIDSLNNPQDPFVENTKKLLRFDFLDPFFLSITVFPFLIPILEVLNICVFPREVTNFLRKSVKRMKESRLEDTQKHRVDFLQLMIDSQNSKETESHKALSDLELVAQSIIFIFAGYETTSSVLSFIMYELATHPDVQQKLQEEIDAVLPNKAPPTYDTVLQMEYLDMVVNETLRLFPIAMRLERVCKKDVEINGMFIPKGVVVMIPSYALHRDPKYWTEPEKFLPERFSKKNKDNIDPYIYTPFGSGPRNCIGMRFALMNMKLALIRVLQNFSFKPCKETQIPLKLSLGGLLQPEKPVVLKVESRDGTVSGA
Sequence of Cytochrome P450 2C9 (P11712 whole entry): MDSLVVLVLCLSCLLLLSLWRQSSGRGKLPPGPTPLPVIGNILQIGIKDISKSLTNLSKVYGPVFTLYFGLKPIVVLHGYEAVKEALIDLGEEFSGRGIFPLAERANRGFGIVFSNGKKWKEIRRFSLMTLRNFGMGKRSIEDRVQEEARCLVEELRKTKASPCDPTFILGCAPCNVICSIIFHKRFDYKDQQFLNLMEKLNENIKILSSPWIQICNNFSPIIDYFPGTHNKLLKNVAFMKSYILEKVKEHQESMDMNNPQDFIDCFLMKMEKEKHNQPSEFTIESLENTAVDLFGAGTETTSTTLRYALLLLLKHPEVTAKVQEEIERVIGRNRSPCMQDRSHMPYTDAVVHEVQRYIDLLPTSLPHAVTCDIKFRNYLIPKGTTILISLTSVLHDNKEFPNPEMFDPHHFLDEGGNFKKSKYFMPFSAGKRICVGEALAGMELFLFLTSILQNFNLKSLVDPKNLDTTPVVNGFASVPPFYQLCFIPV
Sequence of C-X-C chemokine receptor type 4 (Homo sapiens) (P61073 whole entry): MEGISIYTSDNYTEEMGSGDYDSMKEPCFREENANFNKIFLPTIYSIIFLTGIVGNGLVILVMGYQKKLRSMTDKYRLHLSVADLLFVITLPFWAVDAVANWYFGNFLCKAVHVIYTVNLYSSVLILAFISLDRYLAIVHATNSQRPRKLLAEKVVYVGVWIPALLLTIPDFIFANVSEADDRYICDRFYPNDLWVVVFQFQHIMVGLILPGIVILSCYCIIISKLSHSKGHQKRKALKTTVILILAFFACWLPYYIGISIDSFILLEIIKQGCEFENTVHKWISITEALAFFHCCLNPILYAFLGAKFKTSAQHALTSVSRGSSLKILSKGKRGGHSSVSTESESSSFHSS
Sequence of C-C chemokine receptor type 2 (Homo sapiens) (P41597 whole entry, looked up): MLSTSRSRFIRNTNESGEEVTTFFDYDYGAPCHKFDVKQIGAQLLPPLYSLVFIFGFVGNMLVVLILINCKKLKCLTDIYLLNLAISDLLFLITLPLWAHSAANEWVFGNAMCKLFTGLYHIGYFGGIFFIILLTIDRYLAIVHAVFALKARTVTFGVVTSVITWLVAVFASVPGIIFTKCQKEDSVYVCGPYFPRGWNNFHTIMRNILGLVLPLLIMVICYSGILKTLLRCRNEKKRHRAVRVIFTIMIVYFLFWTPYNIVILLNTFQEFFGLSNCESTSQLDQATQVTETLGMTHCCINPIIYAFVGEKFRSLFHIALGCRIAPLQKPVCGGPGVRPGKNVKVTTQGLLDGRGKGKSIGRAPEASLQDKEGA
Sequence of Cytochrome P450 2D6 (P10635 whole entry): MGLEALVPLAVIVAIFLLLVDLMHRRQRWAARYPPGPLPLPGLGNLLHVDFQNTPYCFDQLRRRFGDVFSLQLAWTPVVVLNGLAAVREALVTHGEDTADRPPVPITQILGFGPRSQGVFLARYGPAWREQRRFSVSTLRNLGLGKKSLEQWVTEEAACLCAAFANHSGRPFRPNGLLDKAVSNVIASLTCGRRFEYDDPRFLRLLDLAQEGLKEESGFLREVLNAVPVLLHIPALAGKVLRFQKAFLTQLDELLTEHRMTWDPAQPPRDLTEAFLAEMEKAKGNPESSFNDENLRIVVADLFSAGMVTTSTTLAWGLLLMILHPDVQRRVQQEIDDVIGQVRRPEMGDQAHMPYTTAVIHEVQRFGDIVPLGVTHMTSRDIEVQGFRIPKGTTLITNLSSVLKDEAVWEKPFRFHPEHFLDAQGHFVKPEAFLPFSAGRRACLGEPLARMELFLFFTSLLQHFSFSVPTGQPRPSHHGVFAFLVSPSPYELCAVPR
Sequence of Cytochrome P450 2C19 (P33261 whole entry): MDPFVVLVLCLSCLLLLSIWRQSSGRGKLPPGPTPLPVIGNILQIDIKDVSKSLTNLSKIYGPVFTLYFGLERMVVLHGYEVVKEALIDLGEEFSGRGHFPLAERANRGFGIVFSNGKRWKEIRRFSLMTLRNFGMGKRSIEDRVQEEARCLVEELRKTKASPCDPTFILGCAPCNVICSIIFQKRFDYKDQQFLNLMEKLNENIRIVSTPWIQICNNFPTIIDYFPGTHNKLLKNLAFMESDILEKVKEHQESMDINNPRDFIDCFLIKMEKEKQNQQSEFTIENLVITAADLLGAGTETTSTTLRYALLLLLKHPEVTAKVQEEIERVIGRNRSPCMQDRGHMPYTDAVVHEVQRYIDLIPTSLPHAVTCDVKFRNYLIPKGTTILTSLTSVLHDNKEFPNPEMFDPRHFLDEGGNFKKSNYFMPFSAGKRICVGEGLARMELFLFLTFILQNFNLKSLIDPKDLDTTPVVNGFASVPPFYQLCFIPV

One may read the clearance as a measure of how efficiently the substance is removed, as volume per time. What is called AUC(0-inf) is the area under the concentration-time curve extrapolated to infinity. For orientation: bioavailability means dose-corrected exposure relative to a reference, in per cent. As usually defined, the Cmax is the peak of the concentration-time curve. A word on the IC50: it is the concentration needed to halve the response being measured. The half-life is the time in which the quantity being followed falls by half. For orientation: CC50 means the concentration giving 50% cytotoxicity. As for `COc1ccc(N(Cc2cnccc2C)C2CCN([C@H](C)CCNC(=O)c3c(C)cc(Cl)nc3C)CC2)cc1`, the clearance in [1] was found to be 46.7 mL/min/kg; in data set [22], 30 mL/min/kg. For the same compound, the AUC(0-inf) in data set [2] is 1.33 µM·h; in data set [6], 22.7 µM·h. Besides, the inhibition entry in [3], in data set [12], in [13], in data set [14], in data set [15] and in [17] was “inactive” each time. The inhibition result in [20] was “inactive”. Besides, the Vd in [4] was 34.7 L/kg; in data set [8], 40.5 L/kg. Besides, the bioavailability came out at 21% in [5] and 67% in data set [23]. Also, the figures for the Cmax in data set [7] and in data set [10] were 580 nM and 3800 nM, respectively. Further, the INH at Cytochrome P450 2C19, on Cytochrome P450 2D6, at Cytochrome P450 2C9, on Cytochrome P450 1A2 and on Cytochrome P450 3A4 was over 10 µM in each case. Moreover, the values for the IC50 in [9] and in [21] were 2.2 nM and 250 nM, respectively. The half-life was 600 min in data set [11] and 810 min in data set [18]. Moreover, the fraction unbound at 5 h, 1 µM in data set [16] was 0.08. Moreover, in [19], the CC50 was over 36.4 µM.

On to `COc1ccc(N(Cc2cnccc2C)C2CCN([C@H](C)CCNC(=O)c3c(C)ncnc3C)CC2)cc1`, for which the IC50 in [9] amounted to 1830 nM. Also, the PPB with Plasma worked out at 75%. For the same compound, the CC50 in data set [19] is over 38.3 µM.

Usually Vdss stands for a proportionality between amount in the body and measured concentration, not a real space. In the case of `COc1ccc(N(Cc2cccnc2)C2CCN([C@H](C)CCNC(=O)c3c(C)cc(Cl)nc3C)CC2)cc1`, the AUC(0-inf) is 2.73 µM·h in [2] and 4.83 µM·h in [6]. The Vd in [4] was 26.7 L/kg. For the same compound, the figures for the bioavailability in data set [5] and in data set [23] were 37% and 23%, respectively. Moreover, the Cmax in data set [7] is 1570 nM; in data set [10], 1330 nM. The Vdss with Rattus norvegicus [24] came to 50.5 L/kg. Also, the IC50 in [9] was found to be 18.9 nM. The same compound showed a t1/2 in the data set with Rattus norvegicus [25] of 8.6 h. The fraction unbound at 5 h, 1 µM in [16] was 0.07. This compound showed a half-life in data set [18] of 792 min. The CC50 in [19] was over 37.3 µM. The clearance in data set [22] is 23.3 mL/min/kg.
